Assay results taken from patent publication US20130074216A1, “TOMATO CATECHOL-O-METHYLTRANSFERASE SEQUENCES AND METHODS OF USE” (UNIVERSITY OF FLORIDA RESEARCH FOUNDATION, INC., priority 2011, published 2013).

Legend:
SIOMT1 = assay: Substrate specificity assay of purified recombinant SIOMT1 with [14C]-AdoMet; assay type: biochemical, Solanum lycopersicum; settings: 15 μM substrate, 30 min, 25°, products extracted with hexanes, scintillation counting
Experimental: FIG. 2 illustrates the chemical structure and relative activity of SIOMT1 on catechol and substrates with similar structure to catechol. Relative activity was determined by incubating purified SIOMT with excess amounts of [C^14]-AdoMet and […] of substrate. Products were extracted with hexanes and measured with a scintillation counter. Relative activity is expressed as a percentage of activity on catechol. 1=catechol; 2=guaiacol; 3=salicylic acid; 4=benzoic acid; 5=orcinol; 6=caffeic acid.
For substrate specificity assays, 5 μL purified enzyme was assayed at 25° in a 100 μL reaction containing 50 mM Tris-HCl, pH 7.5, 100 mM KCl, 2.8 mM BME, 15 μM substrate, 10 mM SAM, 0.4 mM [methyl-^14C] AdoMet (specific activity 50.4 mCi mmol^−1; Amersham). Substrates were diluted in 50% EtOH. Assays were done in triplicate, including boiled enzyme controls. After 30 min at 25° the reactions were stopped by adding equal volumes of hexanes. The methylated substrate was extracted on a vortex mixer for 15 sec and centrifuging at 13 200 g for 5 min. 50 μL of the organic layer was counted for 10 min in 3 ml Ready Gel Scintillation Fluid (Beckman Coulter, http://www.beckmancoulter.com). Counts for the boiled enzyme controls were subtracted from the sample counts, and activity for catechol was normalized to 100%. For the Km of catechol, procedures were the same as above, except for catechol concentrations. Concentrations used were: 0, 1, 5, 15, 25, and 50 μM.
To further test the specificity of SGN-U582403 (SIOMT1) for catechol, the activity of SIOMT1 on substrates with similar structure to catechol was measured. Purified protein was incubated with [^14C]-AdoMet and the following potential substrates: catechol, guaiacol, salicylic acid, benzoic acid, orcinol, or caffeic acid. Products were extracted with hexanes and measured with a scintillation counter.

[1] = tested on: tomato fruit pericarp discs; assay: Catechol feeding of tomato fruit pericarp discs, guaiacol by GC/MS; assay type: cell-based, Solanum lycopersicum cv. Flora-Dade; settings: 10 μl of 1 M catechol per disc
Experimental: FIGS. 6A and 6B illustrate results of catechol feeding of tomato discs. Tomato fruit discs were made from the pericarp of Flora-Dade and SIOMT1OE ripe fruit and treated with water or catechol. Volatiles of the discs were collected after 5 h and analyzed using GC-MS. FIG. 6A illustrates the spectrum showing the guaiacol peak at 20.65 minutes. […] The table in FIG. 6B summarizes the differences in guaiacol production between Flora-Dade and SIOMT1OE.
Tomato discs were cut from pericarp tissue of ripe WT and SIOMT1 over-expressing fruit using a size 10 borer. A hundred discs were used for each sample treatment. Discs were placed in petri dishes and an X was cut in the top of each. 10 μl of either water or 1 M catechol dissolved in water was pipetted into each disc. Cover were place on petri dish and disc were left to incubate for 5 hr. Disc were then place in glass tube and volatiles were extracted as previously described. Guaiacol was quantified on GC/MS using a guaiacol standard curve.
Rather, low concentrations of catechol might limit the production of guaiacol in SIOMT1 plants. Thus, to further test this, catechol was fed to fruit pericarp discs of Flora-Dade (WT) and SIOMT1 over-expressing lines. Volatiles were collected after incubation for […]. Both WT and SIOMT1 discs produced increased guaiacol when fed catechol. […]

[2] = Initial screen: catechol added to E. coli cultures expressing candidate OMT, guaiacol production measured; assay type: cell-based, Solanum lycopersicum cv. M82; settings: induced protein in E. coli cultures
Experimental: Potential S. lycopersicum catechol OMT candidates were selected by identification of genes with homology to previously characterized catechol and caffeic acid OMTs (FIG. 1). Five candidate genes were selected, SGN-U582403, SGN-U565623, SGN-U319245, SGN-U575022, and SGN-U321686. Full length cDNAs were synthesized from S. lycopersicum cv. M82 ripe fruit RNA. Candidate genes were cloned into pET160 plasmids for expression in E. coli. Initial screens were performed by adding catechol directly to bacterial cultures expressing induced protein and measuring guaiacol production.

Molecule: O=C(O)/C=C/c1ccc(O)c(O)c1 [caffeic acid]
- activity of SIOMT1 on substrate relative to catechol (SIOMT1): slight activity

Molecule: Oc1ccccc1O [catechol]
- guaiacol produced by catechol-fed discs relative to the unfed control ([1]; SIOMT1 over-expressing discs): 52 times
- guaiacol produced by catechol-fed discs relative to the unfed control ([1]; WT (Flora-Dade) discs): 36 times
- activity of SIOMT1 on substrate relative to catechol (SIOMT1): preferentially methylated

Molecule: Cc1cc(O)cc(O)c1 [orcinol]
- activity of SIOMT1 on substrate relative to catechol (SIOMT1): slight activity

B1: U582403: tomato catechol O-methyltransferase from S. lycopersicum, SEQ ID NO: 3 (protein)
chain: MGSTANIQLATQSEDEERNCTYAMQLLSSSVLPFVLHSTIQLDVFDILAKDKAATKLSALEIVSHMPNCKNPDAATMLDRMLYVLASYSLLDCSVVEEGNGVTERRYGLSRVGKFFVRDEDGASMGPLLALLQDKVFINSWFELKDAVLEGGVPFDRVHGVHAFEYPKLDPKFNDVFNQAMINHTTVVMKRILENYKGFENLKTLVDVGGGLGVNLKMITSKYPTIKGTNFDLPHVVQHAPSYPGVDHVGGDMFESVPQGDAIFMKWILHDWSDGHCLKLLKNCHKALPDNGKVIVVEANLPVKPDTDTTVVGVSQCDLIMMAQNPGGKERSEQEFRALASEAGFKGVNLICCVCNFWVMEFYK
modifications: S. lycopersicum
- conversion of catechol to guaiacol by candidate OMT [2]: converted catechol to guaiacol
